The values that follow come from US12678509B2, “Inhibitor of apoptosis (IAP) protein antagonists” (Sanford Burnham Prebys Medical Discovery Institute, priority 2019, dated 2026).

Data set [1] deals with NB-4. In words: Cell viability (CellTiter-Glo). The class given is cell-based, Human. The following applies: Homo sapiens, NB-4, 72 h, read-out: NB-4 Viability 72 h IC50. The method, then: The compound 18a was tested in 16 different cell lines. For 6-day compound treatment 1700 cells per well were plated in a 384-well plate (Corning #781098) and incubated overnight at 37° C./5% CO2. […] Afterwards, 20 μL CellTiter-Glo reagent (Promega, #G7570) was added to each well outside of the incubator and the plates were read for luminescence on a Spark® multimode microplate reader (Tecan). Data was fit in GraphPad Prism 8 to a nonlinear regression curve to determine the IC50 of the compounds. […]
(In general: ATP-based viability assays read luminescence as a measure of living cells.)

The subject of data set [2] is latently infected cell line Jurkat 2D10. Nature of the data set: HIV Jurkat 2D10 cells GFP+ assay (reversal of HIV latency). In kind it is cell-based. The following applies: Homo sapiens, Jurkat, 48 h, read-out: Jurkat 2D10 GFP+ EC50. The method, then: Several compounds (Table 5) were tested for their efficacy in the reversal of HIV latency in the latently infected cell line Jurkat 2D10. Jurkat 2D10 cells were treated with different doses of the compounds, or one of the following compounds: BV-6, SM-164, Birinapant, LCL-161, GDC-0152, AT-406 for 48 hours. Reversal of HW latency was evaluated by analyzing GFP expression using flow cytometry. Induction of GFP expression was compared to baseline GFP levels detected in the absence of treatment.

Data set [3] is described as follows: Pharmacokinetic study in mice, snapshot PK. In kind it is in vivo. Conditions: female, C57BL/6J, mouse, plasma, ip, one hour after i.p. injection of 10 mg/kg. The method, then:
All animal procedures were approved by the Sanford Burnham Prebys Medical Discovery Institute Institutional Animal Care and Use Committee and were performed according to the NIH guidelines for the Care and Use of Laboratory Animals. Adult female C57BL/6J were purchased from JAX laboratories and housed with free access to food and water on a 12 h light/dark cycle. Compounds were formulated in 5% DMSO, 10% Tween-80, and 85% dH2O and injected intraperitoneally (i.p.) into mice at doses of 10 mg/kg. For snapshot PK analysis, blood samples were collected retro-orbitally one hour after injection and for the time course PK study, blood samples were collected at 15 min, 30 min, 1 h, 2 h, 4 h, 6 h, 24 h time points. For the blood samples plasma was separated by centrifugation. Plasma samples were extracted with acetonitrile:water 4:1 with 0.1% formic acid containing indometacin as an internal standard. Samples were centrifuged and supernatants were diluted with acetonitrile:water and analyzed via LC-MS/MS on a Shimadzu Nexera X2 HPLC coupled to an AB Sciex 6500 QTRAP.
Plasma exposure of selected compounds at 1 h compared.
Plasma levels of parent compound determined one hour after i.p. injection of 10 mg/kg

The test system of data set [4] is SKOV-3. In words: Cell viability (CellTiter-Glo), 48 hrs. The class given is cell-based. Conditions: Homo sapiens, SK-OV-3, 48 h, read-out: SKOV-3 Viability 48 h IC50. The method, then:
One thousand seven hundred cells per well were plated in a 384 well plate and incubated overnight at 37° C./5% CO2. The following day, compounds in 10-fold dilutions were added to the plates and the plates returned to the incubator for 48 hrs. 48 hrs later, plates were removed to the bench and 20 μL CellTiter-Glo reagent was added to each well and the plates were read for luminescence on a Spark® multimode microplate reader (Tecan). Data were fit using PRISM to a nonlinear regression curve to determine the IC50 of the compounds.

Data set [5] concerns the target T1, ML-IAP (Homo sapiens, UniProt Q96CA5).
T1 sequence (Q96CA5 1-298): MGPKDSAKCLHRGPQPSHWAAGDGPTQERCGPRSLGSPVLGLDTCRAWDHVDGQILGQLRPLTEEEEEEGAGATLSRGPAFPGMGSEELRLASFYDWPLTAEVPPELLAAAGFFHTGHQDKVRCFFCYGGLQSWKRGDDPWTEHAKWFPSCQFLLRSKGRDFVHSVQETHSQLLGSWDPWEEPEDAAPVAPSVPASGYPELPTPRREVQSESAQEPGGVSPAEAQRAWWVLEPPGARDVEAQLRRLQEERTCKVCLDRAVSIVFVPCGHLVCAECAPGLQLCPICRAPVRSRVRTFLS
Nature of the data set: Fluorescence polarization assay. In kind it is binding. Conditions: SMAC-FITC probe, Ki calculated from IC50. The method, then: (§1) Binding of compounds to ML-IAP and BIR3 domain of cIAP1, cIAP2 and XIAP was determined by fluorescence polarization. Assay buffer was 100 mM KH2PO4 at pH 7.5, 50 μM ZnSO4, 1 mM TCEP (Tris(2-carboxyethyl)phosphine hydrochloride) and 50 nM SMAC-FITC probe (AbuRPF-K(5-Fam)-NH2) as described by Z. Nikolovska-Coleska et al.^9. cIAP1 and XIAP were present at 800 nM while cIAP2 and MLIAP were present at 1.5 μM. Compounds in 3-fold dilutions were added to the plates ranging from 30 μM to 1.5 nM. Assays were run in 384-well black plates read (Greiner Bio-One #784076) in an Analyst in fluorescence polarization mode with excitation at 485 nm and emission at 535 nm. Data was fit to a nonlinear regression curve in GraphPad Prism 8 to determine the IC50 values of the compounds. Ki's were then calculated from the IC50 values using equation: Ki=[I]50/([L]50/Kd+[P]0/Kd+1) formulated by Z. Nikolovska-Coleska et al.

For data set [6], the target named is BIR3 domain of cIAP2 (Homo sapiens, UniProt Q13489). Nature of the data set: Fluorescence polarization assay. The class given is binding. Conditions: SMAC-FITC probe, Ki calculated from IC50. The method, then:
as §1

The target of data set [7] is BIR3 domain of cIAP1 (Homo sapiens, UniProt Q13490). In words: Fluorescence polarization assay. The following applies: SMAC-FITC probe, Ki calculated from IC50. In kind it is binding. The method, then:
as §1

In data set [8] the target is BIR3 domain of XIAP (Homo sapiens, UniProt P98170). In words: Fluorescence polarization assay. Conditions: SMAC-FITC probe, Ki calculated from IC50. In kind it is binding. The method, then:
as §1

The subject of data set [9] is MOLM 13. Nature of the data set: Cell viability (CellTiter-Glo), 6-day compound treatment. The class given is cell-based, Human. The following applies: Homo sapiens, MOLM-13, 144 h, read-out: MOLM 13 Viability 6 d IC50. The method, then:
The compound 18a was tested in 16 different cell lines. For 6-day compound treatment 1700 cells per well were plated in a 384-well plate (Corning #781098) and incubated overnight at 37° C./5% CO2. The following day, compounds in 10-fold dilutions were added to the plates and the plates were incubated for 6 days. Afterwards, 20 μL CellTiter-Glo reagent (Promega, #G7570) was added to each well outside of the incubator and the plates were read for luminescence on a Spark® multimode microplate reader (Tecan). Data was fit in GraphPad Prism 8 to a nonlinear regression curve to determine the IC50 of the compounds. […]

Data set [10] relates to AML-SH-075. Nature of the data set: Cell viability in patient derived AML samples (CellTiterGlo, 72 h). In kind it is cell-based, human. The method, then: (§2) Patient AML samples were gathered (under IRB 13-6180) from Scripps MD Anderson, La Jolla, CA Fresh blood samples were subjected to gradient density centrifugation with Ficoll-Paque™ PLUS (17-1440-02, GE Healthcare) and peripheral blood mononuclear cells purified as per manufacturer's protocol.
(§3) 75 nL of 1000× serially diluted IAP inhibitors were spotted in triplicate onto 384-well tissue culture treated plates (Greiner) using a Labcyte Echo acoustic dispensing device. Patient-derived AML cells were maintained in mTeSR1^+1× supplements (Stemcell Technologies) and penicillin/streptomycin/L-glutamine (Omega Scientific Inc.) and Fungizone (HyClone). 25 μL of cell dilution were plated into 384-well plate containing the drugs and incubated for 72 h. Cell viability was assessed by adding 25 μL CellTiterGlo (Promega Corp.) on a Synergy 2 plate reader with Gen5 software (Biotek). % viability was calculated by normalizing luminescence to vehicle only controls (DMSO) in Microsoft Excel and plotted using GraphPad Prism 8. The IC50 values were calculated using log(inhibitor) vs. response—Variable slope (four parameters) equation. (FIG. 6)

Data set [11] concerns AML-SH-065. The data set is described as above. In kind it is cell-based, human. The method, then: as §2, §3
Data set [12] relates to AML-SH-074. Described as above. In kind it is cell-based, human. The method, then:
as §2, §3

Sequence of BIR3 domain of cIAP2 (Q13489 238-349 limits assumed): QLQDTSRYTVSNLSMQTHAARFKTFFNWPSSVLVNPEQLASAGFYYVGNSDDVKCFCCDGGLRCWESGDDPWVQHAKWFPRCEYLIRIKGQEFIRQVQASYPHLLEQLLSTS
Sequence of BIR3 domain of XIAP (P98170 241-356 limits assumed): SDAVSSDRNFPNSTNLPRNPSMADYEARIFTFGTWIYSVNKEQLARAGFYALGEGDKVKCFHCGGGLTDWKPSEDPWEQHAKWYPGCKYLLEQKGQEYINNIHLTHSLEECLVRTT
Sequence of BIR3 domain of cIAP1 (Q13490 253-363 limits assumed): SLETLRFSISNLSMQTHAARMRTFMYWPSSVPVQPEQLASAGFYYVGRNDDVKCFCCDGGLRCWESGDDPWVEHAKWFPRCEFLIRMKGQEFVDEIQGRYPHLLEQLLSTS

The IC50 is the concentration needed to halve the response being measured. One may read the EC50 as the concentration that produces a half-maximal response. For orientation: Ki means a dissociation constant, usually derived from enzyme kinetics or from competition with a known ligand. For the compound `CN[C@@H](C)C(=O)N[C@H]1CCS[C@H]2CC(C)(C)[C@@H](C(=O)N[C@H](CCOCC#CC#CCOCC[C@@H](NC(=O)[C@H]3N4C(=O)[C@@H](NC(=O)[C@H](C)NC)CCS[C@H]4CC3(C)C)c3ccccc3)c3ccccc3)N2C1=O` [Compound 18i, (2S)-1-{[(4S,7S,9aS)-74{(1R)-3-[(6-{[(3R)-3-({[(4S,7S,9aS)-8,8-Dimethyl-4-{[(2S)-2-(methylammonio)propanoyl]amino}-5-oxooctahydropyrrolo[2,1-b][1,3]thiazepin-7-yl]carbonyl}amino)-3-phenylpropyl]oxy}hexa-2,4-diyn-1-yl)oxy]-1-phenylpropyl}carbamoyl)-8,8-dimethyl-5-oxooctahydropyrrolo[2,1-b][1,3]thiazepin-4-yl]amino}-N-methyl-1-oxopropan-2-ammonium dichloride], the IC50 in data set [1] was less than 0.01 µM; in data set [4] it was less than 0.01 µM; in [9] it was 0.1 to 1 µM. For the same compound, the 50% effective concentration (EC50) in data set [2] lay in the range of 0.01 to 0.1 µM. In data set [3], this compound gave a concentration at 1 h of 1.24 µM. Moreover, the Ki in data set [5] is 0.05 to 0.1 µM; in data set [6], 0.05 to 0.1 µM; in data set [7], not above 0.05 µM; in [8], 0.05 to 0.1 µM.

For the compound `CN[C@@H](C)C(=O)N[C@H]1CCO[C@H]2CC(C)(C)[C@@H](C(=O)N[C@H]3c4ccccc4C[C@H]3OCC#CC#CCO[C@@H]3Cc4ccccc4[C@@H]3NC(=O)[C@H]3N4C(=O)[C@@H](NC(=O)[C@H](C)NC)CCO[C@H]4CC3(C)C)N2C1=O` [Compound 18q, [(1S)-1-{[(4S,7S,9aS)-7-{[(1S,2R)-2-[(6-{[(1S,2R)-1-[(4S,7S,9aS)-8,8-Dimethyl-4-[(2S)-2-(methylazaniumyl)propanamido]-5-oxo-octahydropyrrolo[2,1-b][1,3]oxazepine-7-amido]-2,3-dihydro-1H-inden-2-yl]oxy}hexa-2,4-diyn-1-yl)oxy]-2,3-dihydro-1H-inden-1-yl]carbamoyl}-8,8-dimethyl-5-oxo-octahydropyrrolo[2,1-b][1,3]oxazepin-4-yl]carbamoyl}ethyl](methyl)azanium dichloride], the EC50 in [2] is 0.1 to 1 µM. Moreover, the IC50 in data set [10] (Homo sapiens, 72 h, read-out: AML-SH-075 IC50) is 0.01 to 0.1 µM; in [11] (Homo sapiens, 72 h, read-out: AML-SH-065 IC50), 0.01 to 0.1 µM; in data set [12] (Homo sapiens, 72 h, read-out: AML-SH-074 IC50), 0.1 to 1 µM; in data set [4] it was less than 0.01 µM; in data set [9], 0.01 to 0.1 µM. The “AML-SH-075 Efficacy” value in data set [10] (patient derived AML sample AML-SH-075, 72 h, cell viability at max. concentration) is reported as “I (I < 10%)”. Also, in data set [11] (patient derived AML sample AML-SH-065, 72 h, cell viability at max. concentration), the “AML-SH-065 Efficacy” value is recorded as “I (I < 10%)”. For the same compound, the “AML-SH-074 Efficacy” value in [12] (patient derived AML sample AML-SH-074, 72 h, cell viability at max. concentration) was “I (I < 10%)”. The compound further showed a concentration at 1 h in [3] of 1.87 µM. Also, the Ki was 0.05 to 0.1 µM in [5], 0.05 to 0.1 µM in [6], 0.05 to 0.1 µM in [7] and not above 0.05 µM in [8].

For the compound `CN[C@@H](C)C(=O)N[C@H]1CCS[C@H]2CC(C)(C)[C@@H](C(=O)N[C@H]3c4ccccc4C[C@H]3OCCCCCCO[C@@H]3Cc4ccccc4[C@@H]3NC(=O)[C@H]3N4C(=O)[C@@H](NC(=O)[C@H](C)NC)CCS[C@H]4CC3(C)C)N2C1=O` [Compound 18b, (2S)-1-{[(4S,7S,9aS)-7-({(1S,2R)-2-[(6-{[(1S,2R)-1-({[(4S,7S,9aS)-8,8-Dimethyl-4-{[(2S)-2-(methylammonio)propanoyl]amino}-5-oxooctahydropyrrolo[2,1-b][1,3]thiazepin-7-yl]carbonyl}amino)-2,3-dihydro-1H-inden-2-yl]oxy}hexyl)oxy]-2,3-dihydro-1H-inden-1-yl}carbamoyl)-8,8-dimethyl-5-oxooctahydropyrrolo[2,1-b][1,3]thiazepin-4-yl]amino}-N-methyl-1-oxopropan-2-ammonium dichloride], the IC50 in data set [1] is less than 0.01 µM; in [4] it was less than 0.01 µM; in [9], 0.1 to 1 µM. For the same compound, the EC50 in data set [2] is 0.001 to 0.01 µM. Further, the concentration at 1 h in data set [3] was 0.714 µM. The Ki in data set [5] was 0.05 to 0.1 µM; in data set [6], 0.05 to 0.1 µM; in [7], not above 0.05 µM; in data set [8], not above 0.05 µM.

In the case of `CN[C@@H](C)C(=O)N[C@H]1CCS[C@H]2CC3(CC=CC3)[C@@H](C(=O)N[C@H]3c4ccccc4C[C@H]3OCC#CC#CCO[C@@H]3Cc4ccccc4[C@@H]3NC(=O)[C@H]3N4C(=O)[C@@H](NC(=O)[C@H](C)NC)CCS[C@H]4CC34CC=CC4)N2C1=O` [Compound 18o], in data set [2], the EC50 was in the range of 0.001 to 0.01 µM. Further, the concentration at 1 h in data set [3] amounted to 5.18 µM. For the same compound, the IC50 is less than 0.01 µM in data set [4] and 0.01 to 0.1 µM in data set [9]. Besides, the Ki in data set [5] is 0.1 to 0.2 µM; in data set [6], 0.05 to 0.1 µM; in [7], not above 0.05 µM; in [8], not above 0.05 µM.
